Patent publication US8168779B2, “Anhydrous crystalline β-maltose, its preparation and uses” (priority 2006, dated 2012)

Assays:
[1] = Specific surface area by nitrogen adsorption isotherms (BET); type: physicochemical; conditions: BET method, listed as anhydrous crystalline β-maltose of Control 3
Procedure: About 3 g of the anhydrous crystalline β-maltose, obtained in Example 1, was dried in the apparatus under a reduced pressure at about 40° C. for about 15 hours as a pretreatment, and then used for the measurement of specific surface area by the nitrogen adsorption isotherms. The result was analyzed by conventional BET (Brunnauer, Emmet, and Teller) method.

[2] = Hygroscopicity test (moisture content under controlled relative humidity); type: physicochemical; conditions: 27° C., listed as AC β-Mal (Control 3)
Procedure: Moisture contents of the samples at respective periods were measured based on the change of weight from the start of the test. The moisture contents of the samples at the start of the test were measured by Karl Fischer's method.

OC[C@H]1O[C@H](O[C@H]2[C@H](O)[C@@H](O)[C@H](O)O[C@@H]2CO)[C@H](O)[C@@H](O)[C@@H]1O [Anhydrous crystalline β-maltose]
Specific surface area [1]: 0.82 m^2/g
Moisture content of samples ([2]; RH 47% (lithium nitrate), 0 hour (start, Karl Fischer)): 0.24 %, w/w
Moisture content of samples ([2]; RH 47% (lithium nitrate), 2 hours): 0.32 %, w/w
Moisture content of samples ([2]; RH 47% (lithium nitrate), 4 hours): 0.47 %, w/w
Moisture content of samples ([2]; RH 47% (lithium nitrate), 24 hours): 0.54 %, w/w
Moisture content of samples ([2]; RH 47% (lithium nitrate), 96 hours): 0.61 %, w/w
Moisture content of samples ([2]; RH 47% (lithium nitrate), 192 hours): 0.47 %, w/w
Moisture content of samples ([2]; RH 58% (sodium bromide), 0 hour (start, Karl Fischer)): 0.24 %, w/w
Moisture content of samples ([2]; RH 58% (sodium bromide), 2 hours): 4.68 %, w/w
Moisture content of samples ([2]; RH 58% (sodium bromide), 4 hours): 6.92 %, w/w
Moisture content of samples ([2]; RH 58% (sodium bromide), 6 hours): 6.71 %, w/w
Moisture content of samples ([2]; RH 58% (sodium bromide), 8 hours): 6.28 %, w/w
Moisture content of samples ([2]; RH 58% (sodium bromide), 24 hours): 5.63 %, w/w
Moisture content of samples ([2]; RH 58% (sodium bromide), 96 hours): 5.48 %, w/w
Moisture content of samples ([2]; RH 58% (sodium bromide), 192 hours): 5.42 %, w/w
Moisture content of samples ([2]; RH 75% (sodium chloride), 0 hour (start, Karl Fischer)): 0.24 %, w/w
Moisture content of samples ([2]; RH 75% (sodium chloride), 2 hours): 6.86 %, w/w
Moisture content of samples ([2]; RH 75% (sodium chloride), 4 hours): 6.76 %, w/w
Moisture content of samples ([2]; RH 75% (sodium chloride), 6 hours): 6.47 %, w/w
Moisture content of samples ([2]; RH 75% (sodium chloride), 8 hours): 6.34 %, w/w
Moisture content of samples ([2]; RH 75% (sodium chloride), 24 hours): 6.16 %, w/w
Moisture content of samples ([2]; RH 75% (sodium chloride), 96 hours): 6.01 %, w/w
Moisture content of samples ([2]; RH 75% (sodium chloride), 192 hours): 5.93 %, w/w
Moisture content of samples ([2]; RH 90% (barium chloride), 0 hour (start, Karl Fischer)): 0.24 %, w/w
Moisture content of samples ([2]; RH 90% (barium chloride), 2 hours): 7.28 %, w/w
Moisture content of samples ([2]; RH 90% (barium chloride), 4 hours): 7.66 %, w/w
Moisture content of samples ([2]; RH 90% (barium chloride), 6 hours): 7.45 %, w/w
Moisture content of samples ([2]; RH 90% (barium chloride), 8 hours): 7.45 %, w/w
Moisture content of samples ([2]; RH 90% (barium chloride), 24 hours): 8.46 %, w/w
Moisture content of samples ([2]; RH 90% (barium chloride), 96 hours): 10.20 %, w/w
Moisture content of samples ([2]; RH 90% (barium chloride), 192 hours): 9.12 %, w/w
